For this assay, the target named is Nucleic Acid. Put plainly: Dissociation constant of conjugate DNA complexes in 0.05 HEPES buffer of pH 7.3, at room temperature. The assay is classed as nucleic-acid assay.

For the compound `CCCCC(=O)NCCCCCCOP(=O)(NCCCC(=O)Nc1cc(C(=O)Nc2cc(C(=O)Nc3cc(C(=O)NCCCC(=O)Nc4cc(C(=O)Nc5cc(C(=O)Nc6cc(C(=O)NCCCN(C)C)n(C)c6)n(C)c5)n(C)c4)n(C)c3)n(C)c2)n(C)c1)NCCCC(=O)Nc1cc(C(=O)Nc2cc(C(=O)Nc3cc(C(=O)NCCCC(=O)Nc4cc(C(=O)Nc5cc(C(=O)Nc6cc(C(=O)NCCCN(C)C)n(C)c6)n(C)c5)n(C)c4)n(C)c3)n(C)c2)n(C)c1`, the dissociation constant (Kd) came out at 18 nM.
`CCCCC(=O)N(CC(=O)NCCCC(=O)Nc1cc(C(=O)Nc2cc(C(=O)Nc3cc(C(=O)NCCCC(=O)Nc4cc(C(=O)Nc5cc(C(=O)Nc6cc(C(=O)NCCCN(C)C)n(C)c6)n(C)c5)n(C)c4)n(C)c3)n(C)c2)n(C)c1)CC(=O)NCCCC(=O)Nc1cc(C(=O)Nc2cc(C(=O)Nc3cc(C(=O)NCCCC(=O)Nc4cc(C(=O)Nc5cc(C(=O)Nc6cc(C(=O)NCCCN(C)C)n(C)c6)n(C)c5)n(C)c4)n(C)c3)n(C)c2)n(C)c1` returned a Kd of 4.3 nM.
`CN(C)CCCNC(=O)c1cc(NC(=O)c2cc(NC(=O)c3cc(NC(=O)CCCNC(=O)c4cc(NC(=O)c5cc(NC(=O)c6cc(NC(=O)CCCNP(=O)(CCCCN7C(=O)c8ccccc8C7=O)NCCCC(=O)Nc7cc(C(=O)Nc8cc(C(=O)Nc9cc(C(=O)NCCCC(=O)Nc%10cc(C(=O)Nc%11cc(C(=O)Nc%12cc(C(=O)NCCCN(C)C)n(C)c%12)n(C)c%11)n(C)c%10)n(C)c9)n(C)c8)n(C)c7)cn6C)cn5C)cn4C)cn3C)cn2C)cn1C`: binding was characterised by a dissociation constant (Kd) of 34 nM.
`CCCCC(=O)NCCCN(CC(=O)NCCCC(=O)Nc1cc(C(=O)Nc2cc(C(=O)Nc3cc(C(=O)NCCCC(=O)Nc4cc(C(=O)Nc5cc(C(=O)Nc6cc(C(=O)NCCCN(C)C)n(C)c6)n(C)c5)n(C)c4)n(C)c3)n(C)c2)n(C)c1)CC(=O)NCCCC(=O)Nc1cc(C(=O)Nc2cc(C(=O)Nc3cc(C(=O)NCCCC(=O)Nc4cc(C(=O)Nc5cc(C(=O)Nc6cc(C(=O)NCCCN(C)C)n(C)c6)n(C)c5)n(C)c4)n(C)c3)n(C)c2)n(C)c1` registered a Kd of 4.8 nM.

Source of the values: ChEMBL document CHEMBL1142775, “Functionalized head-to-head hairpin polyamides: synthesis, double-stranded DNA-binding activity and affinity” (Bioorg Med Chem Lett, 2005).
